Experimental findings from patent US20260132152A1, “SOLID FORMS OF AN ORALLY-DELIVERED BETA-LACTAMASE INHIBITOR AND USES THEREOF” (Venatorx Pharmaceuticals, Inc., priority 2019, published 2026) are described below.

The structures appear in SMILES notation.

What all share (assay type): physicochemical
A short description of series [1]: Dynamic vapor sorption (DVS) analysis, 5% RH to 95% RH and back to 5% RH at 10% RH increments. As to the method: Moisture sorption/desorption data were collected on a VTI SGA-100 Vapor Sorption Analyzer. NaCl and PVP were used as calibration standards. Samples were not dried prior to analysis. Sorption and desorption data were collected over a range from 5% to 95% RH at 10% RH increments under a nitrogen purge (RH=relative humidity). The equilibrium criterion used for analysis was less than 0.0100% weight change in 5 minutes with a maximum equilibration time of 3 hours. Data were not corrected for the initial moisture content of the samples.
DVS analysis of Compound 1-ethanolate Form A was conducted from 5% relative humidity (RH) to 95% RH and back to 5% RH at 10% RH increments (FIG. 7). […] A loss of 1.8 wt % was observed between 55% RH and 65% RH possibly due to water displacing ethanol. After 65% RH, the sample gained 3.8 wt % between 65% RH and 95% RH. […] Weight loss (˜7.6 wt %) was observed between 95% RH and 5% RH (i.e., desorption). After DVS analysis, it was noted that the sample had deliquesced.
DVS analysis of Compound 1-ethanolate Form B (with minor Form A) was conducted from 5% RH to 95% RH and back to 5% RH at 10% RH increments (FIG. 12). The DVS isotherm of Form B is qualitatively similar to that of Form A. Form B lost 0.2 wt % upon equilibration at ˜5% RH. […] A weight loss of 1.1% was observed between 45% RH and 55% RH, possibly due to the displacement of the ethanol with water. After 55% RH, the sample gained 3.3 wt % between 55% RH and 95% RH. […] Weight loss (˜5.8 w1%) was observed during desorption from 95% RH to 5% RH.

Series [2] in a line: Separate DVS analysis with stepped increase in relative humidity, 0% RH to 60% RH, 4 h per step, then XRPD. As to the method:
A second set of DVS experiments were conducted using a stepped method from 0% RH to 60% RH with steps of 10% RH and four hours of equilibration at each humidity value. […] The samples were placed on an aluminum holder and allowed to equilibrate at 0% RH before starting the following predefined humidity program; hold for 4 h at 0% RH, increase humidity by a step of 10% RH, hold for 4 h. repeat the above two steps five times until a value of 60% RH has been reached. The samples were then analyzed for crystallinity using the second set of XRPD conditions.

A short description of series [3]: Mass spectrometric analysis of conversion of the ethanolate to Compound 1 in water. As to conditions: in the presence of water, high-resolution MS. As for the experimental part: High resolution mass spectra from 50 to 3000 Da were collected with a Bruker Maxis —Plus QTOF mass spectrometer using an electrospray ionization source. The instrument was controlled and data analyzed using Bruker Compass v.4.4 software. The mass spectrometer was calibrated immediately prior to analyses and was operated in positive ionization mode using an Electrospray Ionization (ESI) source. Samples were prepared by dilution in absolute ethanol (without denaturants) or HPLC grade water prior to direct infusion into the ion source.
Mass spectrometric (MS) analyses were performed to confirm the structure of Compound 1-ethanolate Form A, and evaluate the ability of EtOH to dissociate from Compound 1-ethanolate in water. Compound 1-ethanolate Form A, and an amorphous preparation of ((2-ethylbutanoyl)oxy)methyl (R)-2-hydroxy-3-propionamido-3,4-dihydro-2H-benzo[e][1,2]oxaborinine-8-carboxylate were diluted in absolute EtOH or water and analyzed by high-resolution mass spectrometry. A sample of amorphous ((2-ethylbutanoyl)oxy)methyl (R)-2-hydroxy-3-propionamido-3.4-dihydro-2H-benzo[e]|1.2]oxaborinine-8-carboxylate, dissolved in absolute EtOH, was spiked with water prior to analysis. […] The exact mass observed for sodiated Compound 1-ethanolate was 442.2007 (difference=1.4 ppm vs. theoretical: C21H30BNO7Na: 442.2013 Da). […]

In the case of `CCOB1Oc2c(cccc2C(=O)OCOC(=O)C(CC)CC)C[C@@H]1NC(=O)CC` [Compound 1-ethanolate Form B, ((2-ethylbutanoyl)oxy)methyl (R)-2-ethoxy-3-propionamido-3,4-dihydro-2H-benzo[e][1,2]oxaborinine-8-carboxylate], the “State of sample after DVS analysis” value in series [1] (after 5-95-5% RH cycle) is listed as “appeared to have deliquesced”. For the same compound, the “Weight loss in DVS (desorption)” value in series [1] (desorption from 95% RH to 5% RH) is on record as around 5.8 w1%. Moreover, in series [1] (equilibration at ~5% RH), the “Weight loss upon equilibration” value worked out at 0.2 wt %. Besides, the “Weight gain in DVS” value in series [1] (sorption, between 5% RH and 45% RH) is on record as around 0.5 wt %; in series [1] (sorption, between 55% RH and 95% RH), 3.3 wt %. In addition, in series [1] (sorption, between 45% RH and 55% RH, possibly displacement of ethanol with water), the “Weight loss in DVS” value was 1.1%. Also, the “Mass change in stepped DVS” value in series [2] (at humidities higher than 40% RH, loss of ethanol from the boronate ester complex) is recorded as “a decrease in mass was observed”. Also, the “Mass increase in stepped DVS” value in series [2] (from 0% RH to 40% RH) is on record as 0.4 wt, -%. For the same compound, the “Retention of crystal structure (XRPD after stepped DVS)” value in series [2] (up to 60% r.h.) was “retained its predominant crystal structure for at least four hours”.

Take `CCOB1Oc2c(cccc2C(=O)OCOC(=O)C(CC)CC)C[C@@H]1NC(=O)CC` [Compound 1-ethanolate, ((2-ethylbutanoyl)oxy)methyl (R)-2-ethoxy-3-propionamido-3,4-dihydro-2H-benzo[e][1,2]oxaborinine-8-carboxylate]: the “Conversion to the free boronic acid (Compound 1)” value in series [3] is given as “rapidly converted to the free boronic acid”.
